The target of series [1] is Cytochrome P450 2C9 (Homo sapiens, UniProt P11712).
For series [2], the target named is Cytochrome P450 2D6 (Homo sapiens, UniProt P10635).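 Further: CYP2D6 member of a cytochrome P450 panel assay.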
In series [3] the target is DNA dC->dU-editing enzyme APOBEC-3A (Homo sapiens, UniProt P31941). Briefly: Dose Response confirmation of small molecule APOBEC3A DNA Deaminase Inhibitors via a fluorescence-based single-stranded DNA deaminase assay. [Related pubchem assays (depositor defined):AID493011, AID493024]. Format: functional.
Series [4] has as its target DNA dC->dU-editing enzyme APOBEC-3G (Homo sapiens, UniProt Q9HC16). The format is functional.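 Further: Dose-response counterscreen measuring inhibition of APOBEC3G DNA deaminase activity, run while confirming APOBEC3A inhibitors.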
For series [5], the target named is T1, Ubiquitin-conjugating enzyme E2 N (Homo sapiens, UniProt P61088).
T1 sequence (P61088 whole entry): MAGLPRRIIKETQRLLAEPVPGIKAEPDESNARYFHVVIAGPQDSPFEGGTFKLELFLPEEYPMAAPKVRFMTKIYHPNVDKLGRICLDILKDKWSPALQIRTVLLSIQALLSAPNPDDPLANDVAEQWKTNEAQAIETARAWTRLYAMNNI
Format: functional.

Series [6] deals with T1, Ubiquitin-conjugating enzyme E2 N. Format: functional. This is another data set of the same source.
Series [7] deals with T2, Bcl-2-related protein A1 (Mus musculus, UniProt Q07440).
T2 sequence (Q07440 whole entry): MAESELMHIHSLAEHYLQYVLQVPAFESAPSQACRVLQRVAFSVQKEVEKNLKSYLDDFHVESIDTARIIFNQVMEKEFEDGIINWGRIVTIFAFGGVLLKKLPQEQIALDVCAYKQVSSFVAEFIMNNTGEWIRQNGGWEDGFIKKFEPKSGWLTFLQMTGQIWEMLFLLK
The format is functional.

Series [8] has as its system HEK293. Briefly: NOD2 signaling inhibitors in MDP-stimulated cells, cell-based, uHTS, luminescence (AID 2001). The conditions noted are these: Homo sapiens. Format: functional.
Series [9] has as its system HEK293. Briefly: cells. Particulars: Homo sapiens. Format: functional, cell-based.
Series [10] deals with HEK293. Briefly: inhibition of NOD1-driven NF-kB reporter – cell-based, luminescence, uHTS, primary screen (AID 1578). Format: functional. Particulars: Homo sapiens.
Series [11] concerns HEK293. Briefly: cells. The format is functional, cell-based. The conditions noted are these: Homo sapiens. The source holds these as a separate data set.
Series [12] has as its system HEK293. Briefly: EBV LMP1 TES2 canonical NF-kB signalling blockers – cell-based, HEK293, luciferase, cherry-pick, dose response (AID 588343). Format: functional, Homo sapiens. Particulars: hek293.
For series [13], the target named is T3, Alkaline phosphatase, tissue-nonspecific isozyme (Homo sapiens, UniProt P05186).
T3 sequence (P05186 whole entry): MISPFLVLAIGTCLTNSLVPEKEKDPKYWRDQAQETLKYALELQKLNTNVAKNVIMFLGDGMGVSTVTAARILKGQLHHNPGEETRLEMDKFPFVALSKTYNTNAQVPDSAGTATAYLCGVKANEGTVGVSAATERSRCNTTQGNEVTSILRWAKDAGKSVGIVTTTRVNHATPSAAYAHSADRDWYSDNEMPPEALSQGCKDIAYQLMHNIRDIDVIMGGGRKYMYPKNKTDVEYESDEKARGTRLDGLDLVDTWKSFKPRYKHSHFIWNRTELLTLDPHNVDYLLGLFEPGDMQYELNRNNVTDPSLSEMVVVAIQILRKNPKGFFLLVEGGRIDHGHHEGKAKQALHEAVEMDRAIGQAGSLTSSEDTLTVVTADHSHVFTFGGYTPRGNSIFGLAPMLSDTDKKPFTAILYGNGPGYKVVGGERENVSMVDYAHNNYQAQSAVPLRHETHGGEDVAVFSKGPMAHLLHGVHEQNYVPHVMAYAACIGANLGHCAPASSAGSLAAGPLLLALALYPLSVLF
Briefly: potency against alkaline phosphatase TNAP – biochemical, luminescent, dose response, SAR follow-up (AID 1056).

The target in series [14] is Alkaline phosphatase, placental type (Homo sapiens, UniProt P05187). Briefly: human placental alkaline phosphatase inhibition – biochemical, luminescence, confirmation (AID 1512). Format: functional.
A short description of series [15]: alpha-synuclein stem-loop luciferase translation blockers – H4 neuroglioma cells, luminescence, confirmation (AID 1988). Format: functional, cell-based.
A short description of series [16]: luciferase reporter signal suppression in cells – H4 neuroglioma cells, luminescence, dose response (AID 1990). The format is functional, cell-based.
A short description of series [17]: Luminescence Cell-Based Dose Response HTS to Identify Inhibitors of 5'UTR Stem-Loop Driven Prion Protein mRNA Translation in H4 Neuroglioblastoma Cells. [Related pubchem assays: 1827 (Project Summary), 1813 (Primary HTS)]. Format: functional.
Series [18] is described as follows: HEK-293T cell viability reduction – luminescence, B-cell screen hits, cytotoxicity control for BCR NF-kB inhibitor project, dose response (AID 489021).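 Further: HEK-293T cells carrying an NF-kB luciferase reporter; cells exposed to compound for about 14 hours before viability readout.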 The format is functional, cell-based.
Series [19] has as its target Cytochrome P450 2C19 (Homo sapiens, UniProt P33261). Briefly: Cytochrome panel assay with activity outcomes. Panel member name: p450-cyp2c19 Compounds with AC50 equal or less than 10 uM are considered active. The format is functional.
The target of series [20] is T4, Aminopeptidase N (Plasmodium falciparum FcB1/Columbia, UniProt O96935).
T4 sequence (O96935 whole entry): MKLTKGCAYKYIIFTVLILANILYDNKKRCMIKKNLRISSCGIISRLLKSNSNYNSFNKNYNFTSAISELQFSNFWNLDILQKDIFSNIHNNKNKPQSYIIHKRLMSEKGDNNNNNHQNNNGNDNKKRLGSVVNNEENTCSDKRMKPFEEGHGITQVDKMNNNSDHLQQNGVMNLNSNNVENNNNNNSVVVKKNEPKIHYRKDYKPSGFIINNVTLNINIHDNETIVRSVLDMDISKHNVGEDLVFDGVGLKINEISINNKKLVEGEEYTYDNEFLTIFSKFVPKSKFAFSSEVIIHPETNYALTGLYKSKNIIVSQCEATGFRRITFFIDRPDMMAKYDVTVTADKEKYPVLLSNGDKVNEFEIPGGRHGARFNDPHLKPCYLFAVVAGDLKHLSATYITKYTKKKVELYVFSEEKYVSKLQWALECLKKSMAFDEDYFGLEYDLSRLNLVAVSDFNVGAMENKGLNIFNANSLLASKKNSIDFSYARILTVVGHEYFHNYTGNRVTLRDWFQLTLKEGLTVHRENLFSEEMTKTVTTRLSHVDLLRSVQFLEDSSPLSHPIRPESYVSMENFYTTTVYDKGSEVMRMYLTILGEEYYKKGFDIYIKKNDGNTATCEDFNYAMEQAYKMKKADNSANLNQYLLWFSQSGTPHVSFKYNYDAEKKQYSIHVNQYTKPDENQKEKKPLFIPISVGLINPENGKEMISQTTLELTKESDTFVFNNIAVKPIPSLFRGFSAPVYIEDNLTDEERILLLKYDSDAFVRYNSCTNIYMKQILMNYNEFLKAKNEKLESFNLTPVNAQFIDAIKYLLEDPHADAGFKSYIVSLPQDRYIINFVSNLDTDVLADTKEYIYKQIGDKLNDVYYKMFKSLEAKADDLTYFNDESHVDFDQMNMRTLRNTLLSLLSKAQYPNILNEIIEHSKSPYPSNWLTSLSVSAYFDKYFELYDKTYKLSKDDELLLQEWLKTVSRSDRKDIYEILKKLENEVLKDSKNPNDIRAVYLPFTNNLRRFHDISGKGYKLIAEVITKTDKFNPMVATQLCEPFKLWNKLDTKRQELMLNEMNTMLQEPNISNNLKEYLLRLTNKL
Briefly: malaria alanyl aminopeptidase activity blockers – biochemical, fluorogenic H-Leu-NHMec substrate, 1536-well (AID 1445). Also on record: species or system Plasmodium falciparum 3D7, 3D7.

In series [21] the target is Luciferin 4-monooxygenase (Photinus pyralis, UniProt P08659). Briefly: Counter Screen for Luciferase-based Assay Positives. [Related pubchem assays: 620, 618, 411 ].
Series [22] has as its system HT-1080. Briefly: HT1080 cell viability loss – fluorescence readout (AID 620). The format is functional, cell-based. Particulars: Homo sapiens.
Series [23] in a line: NIH3T3 cell viability loss – ATP luminescence, mouse fibroblasts, counter-screen, dose response (AID 2010).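 Further: cells exposed to compound for about 90 hours before reading.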 The format is functional, cell-based.
Series [24] can be described thus: Trypanosoma cruzi growth suppression in host cells – NIH3T3 host cells, beta-gal luminescence, confirmation (AID 2044).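 Further: intracellular parasites grown in NIH/3T3 mouse fibroblasts as host cells; luminescent beta-galactosidase reporter signal from transgenic T. cruzi replicating inside host cells; inhibitors lower the luminescence signal.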 Format: functional, cell-based.

Activity calls are given as the source filed them.

Sequence of Cytochrome P450 2D6 (P10635 whole entry): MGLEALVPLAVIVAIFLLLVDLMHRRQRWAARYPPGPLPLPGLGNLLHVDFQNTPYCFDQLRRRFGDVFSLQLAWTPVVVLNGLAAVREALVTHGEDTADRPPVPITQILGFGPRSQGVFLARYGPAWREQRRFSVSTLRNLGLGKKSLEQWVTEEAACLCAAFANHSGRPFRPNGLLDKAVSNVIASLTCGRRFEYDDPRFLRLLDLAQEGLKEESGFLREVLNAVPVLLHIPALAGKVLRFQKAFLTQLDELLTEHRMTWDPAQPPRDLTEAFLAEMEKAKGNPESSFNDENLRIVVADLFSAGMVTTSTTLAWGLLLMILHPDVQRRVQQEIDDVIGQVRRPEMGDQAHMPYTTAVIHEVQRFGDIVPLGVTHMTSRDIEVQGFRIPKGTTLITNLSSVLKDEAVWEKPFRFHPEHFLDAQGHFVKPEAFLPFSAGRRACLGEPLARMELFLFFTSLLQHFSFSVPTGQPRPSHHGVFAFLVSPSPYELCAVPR
Sequence of Alkaline phosphatase, placental type (P05187 whole entry): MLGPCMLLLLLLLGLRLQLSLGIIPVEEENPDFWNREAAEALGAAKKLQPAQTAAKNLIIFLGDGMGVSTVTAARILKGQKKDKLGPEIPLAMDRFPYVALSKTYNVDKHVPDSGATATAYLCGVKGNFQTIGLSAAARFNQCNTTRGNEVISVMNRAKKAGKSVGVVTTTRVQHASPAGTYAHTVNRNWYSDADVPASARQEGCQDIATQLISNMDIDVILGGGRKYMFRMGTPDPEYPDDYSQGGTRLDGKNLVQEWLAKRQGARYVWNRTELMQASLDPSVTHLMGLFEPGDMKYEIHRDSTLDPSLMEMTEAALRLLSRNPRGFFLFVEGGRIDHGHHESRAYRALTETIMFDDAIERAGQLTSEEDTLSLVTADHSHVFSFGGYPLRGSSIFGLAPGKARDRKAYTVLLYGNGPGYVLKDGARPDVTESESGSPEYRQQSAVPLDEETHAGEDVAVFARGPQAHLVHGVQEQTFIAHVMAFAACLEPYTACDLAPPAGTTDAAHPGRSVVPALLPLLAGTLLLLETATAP
Sequence of DNA dC->dU-editing enzyme APOBEC-3G (Q9HC16 whole entry): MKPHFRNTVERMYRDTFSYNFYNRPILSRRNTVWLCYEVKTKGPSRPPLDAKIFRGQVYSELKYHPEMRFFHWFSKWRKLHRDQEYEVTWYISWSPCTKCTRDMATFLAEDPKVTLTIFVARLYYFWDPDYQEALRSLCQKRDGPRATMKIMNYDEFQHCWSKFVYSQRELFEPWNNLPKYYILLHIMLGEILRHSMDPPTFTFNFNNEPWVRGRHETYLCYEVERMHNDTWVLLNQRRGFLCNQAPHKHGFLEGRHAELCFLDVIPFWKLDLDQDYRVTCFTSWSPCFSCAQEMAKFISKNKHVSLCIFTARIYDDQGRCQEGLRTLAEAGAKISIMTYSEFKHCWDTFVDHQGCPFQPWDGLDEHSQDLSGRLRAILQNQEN
Sequence of DNA dC->dU-editing enzyme APOBEC-3A (P31941 whole entry): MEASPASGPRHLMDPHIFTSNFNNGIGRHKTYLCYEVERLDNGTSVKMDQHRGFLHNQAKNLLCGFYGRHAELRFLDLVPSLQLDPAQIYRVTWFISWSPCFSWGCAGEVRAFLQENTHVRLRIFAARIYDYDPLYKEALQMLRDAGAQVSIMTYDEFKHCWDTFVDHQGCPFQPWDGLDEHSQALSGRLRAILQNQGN
Sequence of Luciferin 4-monooxygenase (P08659 whole entry): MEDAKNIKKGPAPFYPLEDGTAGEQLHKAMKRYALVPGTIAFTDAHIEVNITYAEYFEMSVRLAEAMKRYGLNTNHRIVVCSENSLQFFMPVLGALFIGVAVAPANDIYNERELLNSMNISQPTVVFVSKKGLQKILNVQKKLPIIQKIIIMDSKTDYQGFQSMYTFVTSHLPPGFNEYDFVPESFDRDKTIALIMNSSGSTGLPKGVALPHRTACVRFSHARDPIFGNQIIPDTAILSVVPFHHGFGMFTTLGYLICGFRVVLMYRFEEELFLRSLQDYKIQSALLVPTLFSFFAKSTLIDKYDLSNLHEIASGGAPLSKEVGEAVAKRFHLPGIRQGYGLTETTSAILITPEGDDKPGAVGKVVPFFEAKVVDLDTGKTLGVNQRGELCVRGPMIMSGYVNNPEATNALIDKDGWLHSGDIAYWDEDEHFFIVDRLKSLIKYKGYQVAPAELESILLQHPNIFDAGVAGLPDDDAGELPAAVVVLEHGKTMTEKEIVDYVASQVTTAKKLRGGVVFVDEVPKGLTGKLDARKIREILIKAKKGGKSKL
Sequence of Cytochrome P450 2C9 (P11712 whole entry): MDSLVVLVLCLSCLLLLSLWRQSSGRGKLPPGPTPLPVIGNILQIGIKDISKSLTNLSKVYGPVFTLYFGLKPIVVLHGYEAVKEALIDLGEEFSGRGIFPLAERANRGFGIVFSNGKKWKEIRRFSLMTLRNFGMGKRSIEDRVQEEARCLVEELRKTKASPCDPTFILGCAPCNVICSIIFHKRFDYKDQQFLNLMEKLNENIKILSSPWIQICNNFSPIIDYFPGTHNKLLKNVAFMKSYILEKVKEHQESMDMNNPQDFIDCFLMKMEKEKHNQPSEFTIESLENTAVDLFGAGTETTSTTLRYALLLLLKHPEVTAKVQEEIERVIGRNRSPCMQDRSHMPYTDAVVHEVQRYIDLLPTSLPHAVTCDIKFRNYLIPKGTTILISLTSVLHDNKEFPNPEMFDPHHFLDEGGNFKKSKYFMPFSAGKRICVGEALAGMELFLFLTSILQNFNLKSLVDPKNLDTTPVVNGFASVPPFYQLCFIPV
Sequence of Cytochrome P450 2C19 (P33261 whole entry): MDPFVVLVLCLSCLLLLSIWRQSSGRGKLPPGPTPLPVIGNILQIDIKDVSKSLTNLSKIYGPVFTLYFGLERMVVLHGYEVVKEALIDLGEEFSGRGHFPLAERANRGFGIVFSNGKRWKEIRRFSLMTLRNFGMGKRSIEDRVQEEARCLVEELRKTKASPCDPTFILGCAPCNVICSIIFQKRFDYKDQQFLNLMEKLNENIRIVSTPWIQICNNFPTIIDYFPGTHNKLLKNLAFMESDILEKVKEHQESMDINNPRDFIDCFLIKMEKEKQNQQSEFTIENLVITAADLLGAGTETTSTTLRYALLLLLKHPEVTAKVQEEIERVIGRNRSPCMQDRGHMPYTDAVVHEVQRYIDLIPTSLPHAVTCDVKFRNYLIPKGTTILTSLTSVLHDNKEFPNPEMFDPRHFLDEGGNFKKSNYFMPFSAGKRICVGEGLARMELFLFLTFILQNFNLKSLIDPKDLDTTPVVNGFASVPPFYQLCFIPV

Turning to `COCCNC(=O)COC(=O)/C=C/c1cnc2ccccc2n1`, the concentration at half-maximal activity (AC50) is 1.12 µM (inconclusive) in series [1] and “inconclusive” in [2].
Regarding `CC(=O)Nc1nnc(SCC(=O)NCCOc2ccccc2)s1`, the IC50 in series [3] is 4.13 µM (active); in series [4] it was 5.12 µM (active).
`CCC(C(=O)NC1CCCC1)N(C(=O)c1snc(C(N)=O)c1N)c1ccc2c(c1)OCCO2` (centres undefined): the IC50 in series [5] was 5.82 µM (active); in [6], 7.69 µM (active); in series [7], > 20 µM (inactive).
On the same counts, the results for `O=C(Nc1ccc(F)c(Cl)c1)C1CCN(c2ncnc3c2nc2n3CCCCC2)CC1` are 9.53 µM (active), 8.53 µM (active) and > 20 µM (inactive).
For the compound `CCN1CCN(Cc2ccc(NC(=O)c3ccc(C)c(NC(=O)c4ccno4)c3)cc2C(F)(F)F)CC1`, the IC50 was 11.9 µM (inactive) in series [8], > 20 µM (inactive) in series [9] and > 20 µM (inactive) in series [11]. In addition, in series [10], the EC50 was 7.63 µM (active). The AC50 in series [12] is 0.0692 µM (active).
For the compound `c1ccc2c(c1)nnn2CN1CCOCC1`, the AC50 entry in [2] is on record as “inconclusive”.
Consider `O/N=C/c1cc(Cl)ccc1OCc1cccc2ccccc12`, for which the IC50 in series [13] and in [14] was > 100 µM (inactive) throughout.
As for `COc1ccccc1/C=C1\SC(=S)N(CCC(=O)Nc2cc(C)on2)C1=O`, the EC50 in series [15] was > 120 µM (not active); in series [16] it was 30 µM (active); in series [17] it was 27.8 µM (active). In series [18], the IC50 was > 80 µM (inactive).
In the case of `CC(C)CCC[C@@H](C)[C@@H]1CC[C@@H]2[C@H]3CC[C@H]4C[C@@H](N)CC[C@@]4(C)[C@@H]3CC[C@]21C`, the AC50 result in series [2] and in series [19] was “inconclusive” in each case.
For `Cc1cc(C)nc(Sc2ccc([N+](=O)[O-])cc2[N+](=O)[O-])n1`, the IC50 in [8] is 14.3 µM (inactive); in [9], > 20 µM (inactive); in series [11], 6.2 µM (active); in [18] it was > 80 µM (inactive). In addition, the EC50 in series [10] is > 20 µM (inactive).
For `CN1CCN(C(=O)C2CCN(c3ncnc4c3nc3n4CCCCC3)CC2)CC1`, the half-inhibitory concentration (IC50) in series [5] is 6.77 µM (active); in [6] it was 3.51 µM (active); in series [7] it was > 20 µM (inactive).
On to `O=C1c2cccc3cccc(c23)C(=O)N1CC1CCN(CC(O)COCc2ccc3c(c2)OCO3)CC1` (centres undefined), for which the IC50 in series [5] is 4.33 µM (active); in series [6] it was 3.25 µM (active); in series [7], > 20 µM (inactive).
Take `CCc1cc2c(CN3CCN(C)CC3)cc(=O)oc2cc1O`: the half-maximal inhibitory concentration (IC50) in [20] is 47.7 µM (active).
Turning to `Cc1ccc(N(C(=O)c2snc(C(N)=O)c2N)C(C(=O)NC2CCCC2)c2ccco2)cc1` (centres undefined), the IC50 in series [5] was 13.3 µM (active); in series [6], 8.18 µM (active); in series [7], > 20 µM (inactive).
With `O=C(COC(=O)c1cc(S(=O)(=O)Nc2ccccc2Cl)ccc1O)Nc1nc2ccccc2s1`, the IC50 in series [20] is 44.4 µM (active).
As for `O=C(CCCO)N/N=C/c1cc(Br)ccc1O`, the 50% inhibitory concentration (IC50) in [20] is 21.7 µM (active).
`CCOc1ccc(-c2cc(CCCC(=O)NCCCOC)no2)cc1`: the EC50 was 0.841 µM (active) in series [16], > 100 µM (not active) in series [21] and > 50 µM (not active) in [22]. In addition, the IC50 in series [18] was > 80 µM (inactive).
As to `COc1ccc(-c2ccc(C(C)=O)cc2)cc1[C@H]1[C@H]2C=CC[C@@H](C)[C@@H]2C(=O)N1Cc1ccccc1`, the EC50 in series [23] is 18.9 µM (active); in series [24], 1.15 µM (active). Moreover, the IC50 in series [18] is > 80 µM (inactive).
With `C[C@H](Br)CN(C[C@H](C)Br)c1ccc2c(c1)Cc1ccccc1-2`, the concentration at half-maximal activity (AC50) result in series [2] is “inconclusive”.
For the compound `Cc1c(CCC(=O)O)c(=O)oc2cc3occ(-c4ccccc4)c3cc12`, the IC50 in series [20] was 26.7 µM (active).
As for `CCN1C(NCCCCO)=N[C@@H](c2cccc(F)c2)C(C(=O)OC)=C1C`, the values for the IC50 in series [3] and in [4] were 3.06 µM (active) and 5.05 µM (active), respectively.
Turning to `Cc1cnn(CC(=O)c2ccc(O)c(O)c2)c1`, the IC50 in [13] is > 100 µM (inactive); in series [14], 2.13 µM (active).

(Values after ChEMBL document CHEMBL1201862, “PubChem BioAssay data set” (2004).)
